What was measured:
UO-31 = assay: Antiproliferative activity against human UO31 cells assessed as cell growth at 10^-5 M after 48 hrs by SRB assay relative to control; format: functional; conditions: UO-31, 48 h, read-out: Activity
SK-MEL-2 = assay: Antiproliferative activity against human SK-MEL-2 cells assessed as cell growth at 10^-5 M after 48 hrs by SRB assay relative to control; format: functional; conditions: SK-MEL-2, 48 h, read-out: Activity

**Q.** Which results are given for `COc1ccc(C2CC(c3c(O)cc(C)c(Cl)c3C)=NN2c2ccc(S(N)(=O)=O)cc2)cc1` (configuration not stated)?
**A.** growth at 10 µM (UO-31): 93.3%; growth at 10 µM (SK-MEL-2): 94.3%
